Laboratory results reported in patent US5945413A, “Aspartyl protease inhibitors” (Vertex Pharmaceuticals Incorporated, priority 1996, dated 1999).

Each molecule was assayed against HIV-1 protease (Human immunodeficiency virus type 1 group M subtype B, UniProt P04585) (assay: inhibition constants against HIV-1 protease (method of Pennington et al.)). Conditions: not given.
Format: biochemical
Text: We have measured the inhibition constants of each compound against HIV-1 protease using the method described essentially by M. W. Pennington et al., Peptides 1990, Gimet, E. and D. Andrew, Eds., Escom, Leiden, Netherlands (1990); and the method described essentially by Partaledis et al., J. Virol., 69, pp. 5228-35 (1995).
Using the method described by Pennington et al. (supra), we obtained inhibition constants for the following compounds of this invention: […]

Ki	Structure (SMILES)
550 nM	COc1ccc(S(=O)(=O)N(CC(O)CN2C(=O)CC[C@@H]2Cc2ccccc2)CC2CCCC2)cc1 (single isomer, unassigned) [Compound 15]
160 nM	C=CCN1C[C@H](Cc2ccccc2)N(C[C@H](O)CN(CC2CCCC2)S(=O)(=O)c2ccc(OC)cc2)C1=O [Compound 1]
9 nM	C=CCC1C[C@H](Cc2ccccc2)N(C[C@H](O)CN(CC2CCCC2)S(=O)(=O)c2ccc(OC)cc2)C1=O (stereo partly shown) [Compound 7]
> 10000 nM	COc1ccc(S(=O)(=O)N(CC(O)CN2[C@@H](Cc3ccccc3)CN(C)S2(=O)=O)CC2CCCC2)cc1 (stereo partly shown) [Compound 10]
> 10000 nM	COc1ccc(S(=O)(=O)N(CC(O)CN2[C@@H](Cc3ccccc3)CCS2(=O)=O)CC2CCCC2)cc1 (stereo partly shown) [Compound 11]
> 10000 nM	CC(C)CN1CC(Cc2ccccc2)N(CC(O)CN(CC2CCCC2)S(=O)(=O)c2cccc(N)c2)C1=O (stereo not shown) [Compound 12]
225 nM	COc1ccc(S(=O)(=O)N(CC(O)CN2C(=O)N(C)C[C@@H]2Cc2ccccc2)CC2CCCC2)cc1 (stereo partly shown) [Compound 13]
16 nM	COc1ccc(S(=O)(=O)N(CC(O)CN2C(=O)N(Cc3ccccc3)C[C@@H]2Cc2ccccc2)CC2CCCC2)cc1 (stereo partly shown) [Compound 14]
56 nM	COc1ccc(S(=O)(=O)N(CC2CCCC2)C[C@@H](O)CN2C(=O)C(C)C[C@@H]2Cc2ccccc2)cc1 (stereo partly shown) [Compound 16]
115 nM	COc1ccc(S(=O)(=O)N(CC(O)CN2C(=O)C(C)(C)C[C@@H]2Cc2ccccc2)CC2CCCC2)cc1 (stereo partly shown) [Compound 17]
15 nM	CCC1C[C@H](Cc2ccccc2)N(CC(O)CN(CC2CCCC2)S(=O)(=O)c2ccc(OC)cc2)C1=O (stereo partly shown) [Compound 18]
3000 nM	COc1ccc(S(=O)(=O)N(CC(O)CN2C(=O)CC(O)[C@@H]2Cc2ccccc2)CC2CCCC2)cc1 (stereo partly shown) [Compound 19]
1.5 nM	COc1ccc(S(=O)(=O)N(CC2CCCC2)C[C@@H](O)CN2C(=O)C(Cc3ccccc3)C[C@@H]2Cc2ccccc2)cc1 (stereo partly shown) [Compound 20]
> 20000 nM	COc1ccc(S(=O)(=O)N(CC(O)CN2C(=O)C(N)C[C@@H]2Cc2ccccc2)CC2CCCC2)cc1 (stereo partly shown) [Compound 21]
600 nM	COc1ccc(S(=O)(=O)N(CC(O)CN2C(=O)C(NC(C)=O)C[C@@H]2Cc2ccccc2)CC2CCCC2)cc1 (stereo partly shown) [Compound 22]
70 nM	COc1ccc(S(=O)(=O)N(CC(O)CN2C(=O)C(CC(O)CO)C[C@@H]2Cc2ccccc2)CC2CCCC2)cc1 (stereo partly shown) [Compound 23]
350 nM	COc1ccc(S(=O)(=O)N(CC(O)CN2C(=O)C(CC3COCO3)C[C@@H]2Cc2ccccc2)CC2CCCC2)cc1 (stereo partly shown) [Compound 24]
83 nM	COc1ccc(S(=O)(=O)N(CC(O)CN2C(=O)C(CC(COC(C)=O)OC(C)=O)C[C@@H]2Cc2ccccc2)CC2CCCC2)cc1 (stereo partly shown) [Compound 25]
58 nM	COc1ccc(S(=O)(=O)N(CC(O)CN2C(=O)C(CC3COC(=O)O3)C[C@@H]2Cc2ccccc2)CC2CCCC2)cc1 (stereo partly shown) [Compound 26]
3000 nM	COc1ccc(S(=O)(=O)N(CC(O)CN2C(=O)CNC[C@@H]2Cc2ccccc2)CC2CCCC2)cc1 (stereo partly shown) [Compound 27]
1400 nM	COc1ccc(S(=O)(=O)N(CC(O)CN2C(=O)COC[C@@H]2Cc2ccccc2)CC2CCCC2)cc1 (stereo partly shown) [Compound 28]
> 15000 nM	COc1ccc(S(=O)(=O)N(CC(O)CN2C(=O)[C@H](C)NC[C@@H]2Cc2ccccc2)CC2CCCC2)cc1 (stereo partly shown) [Compound 30]
390 nM	COc1ccc(S(=O)(=O)N(CC(O)CN2C(=O)C(C)(C)NC[C@@H]2Cc2ccccc2)CC2CCCC2)cc1 (stereo partly shown) [Compound 31]
160 nM	COc1ccc(S(=O)(=O)N(CC(O)CN2C(=O)C3(CCCC3)NC[C@@H]2Cc2ccccc2)CC2CCCC2)cc1 (stereo partly shown) [Compound 32]
1100 nM	COC(=O)C1NC[C@H](Cc2ccccc2)N(CC(O)CN(CC2CCCC2)S(=O)(=O)c2ccc(OC)cc2)C1=O (stereo partly shown) [Compound 33]
950 nM	COC(=O)C1(C)NC[C@H](Cc2ccccc2)N(CC(O)CN(CC2CCCC2)S(=O)(=O)c2ccc(OC)cc2)C1=O (stereo partly shown) [Compound 34]
20 nM	COc1ccc(S(=O)(=O)N(CC2CCCC2)C[C@@H](O)CN2C(=O)C3(CCCCC3)OC[C@@H]2Cc2ccccc2)cc1 [Compound 47]

Same assay, conditions: Inhibition constant measured at pH 6.0

Ki	Structure (SMILES)
180 nM	C=CCN1C[C@H](Cc2ccccc2)N(CC(O)CN2C[C@H]3CCCC[C@H]3CC2C(=O)NC(C)(C)C)C1=O (stereo partly shown) [Compound 2]
1800 nM	C=CCN1C[C@H](Cc2ccccc2)N(CC(O)CN2CCN(Cc3cccnc3)CC2C(=O)NC(C)(C)C)C1=O (stereo partly shown) [Compound 3]
> 10000 nM	CC(C)(C)NC(=O)C1C[C@@H]2CCCC[C@@H]2CN1CC(O)CN1C(=O)C(C)(C)NC[C@@H]1Cc1ccccc1 (stereo partly shown) [Compound 5]
5 nM	C=CCC1C[C@H](Cc2ccccc2)N(CC(O)CN2C[C@H]3CCCC[C@H]3CC2C(=O)NC(C)(C)C)C1=O (stereo partly shown) [Compound 8]
90 nM	C=CCC1C[C@H](Cc2ccccc2)N(CC(O)CN2CCN(Cc3cccnc3)CC2C(=O)NC(C)(C)C)C1=O (stereo partly shown) [Compound 9]
250 nM	CC(C)(C)NC(=O)C1C[C@@H]2CCCC[C@@H]2CN1CC(O)CN1C(=O)N(Cc2ccccc2)C[C@@H]1Cc1ccccc1 (stereo partly shown) [Compound 76]
560 nM	CC(C)(C)NC(=O)C1C[C@@H]2CCCC[C@@H]2CN1CC(O)CN1[C@@H](Cc2ccccc2)CN(Cc2ccccc2)S1(=O)=O (stereo partly shown) [Compound 77]
10 nM	C=CCN1CC(Cc2ccccc2)N(CC(O)CC(Cc2ccccc2)C(=O)NC2c3ccccc3CC2O)C1=O (stereo not shown) [Compound 78]
1200 nM	CC(C)(C)NC(=O)C1CSCN1C(=O)C(O)CN1C(=O)C(Cc2ccccc2)CC1Cc1ccccc1 (stereo not shown) [Compound 102]
> 10000 nM	CC(C)(C)NC(=O)C1CSCN1C(=O)C(=O)CN1C(=O)C(C)(C)NC[C@@H]1Cc1ccccc1 (stereo partly shown) [Compound 105]
250 nM	CC(C)(C)NC(=O)C1CSCN1C(=O)C(=O)CN1C(=O)C(Cc2ccccc2)CC1Cc1ccccc1 (stereo not shown) [Compound 109]
> 10000 nM	CC(C)(C)NC(=O)C1CSCN1C(=O)C(=O)CN1C(=O)CCC1Cc1ccccc1 (stereo not shown) [Compound 111]
8600 nM	CCCC1CC(Cc2ccccc2)N(CC(=O)C(=O)N2CSCC2C(=O)NC(C)(C)C)C1=O (stereo not shown) [Compound 112]
